Columns and labels:
S1PL2021 [1] = target: T1, S1PL2021 (Burkholderia pseudomallei, UniProt Q63IP8)
T1 construct: gene BPSS2021

S1PL2021 [2] = target: T1, S1PL2021; remark: listed apart in the source

T1 sequence (Q63IP8 21-493 limits assumed): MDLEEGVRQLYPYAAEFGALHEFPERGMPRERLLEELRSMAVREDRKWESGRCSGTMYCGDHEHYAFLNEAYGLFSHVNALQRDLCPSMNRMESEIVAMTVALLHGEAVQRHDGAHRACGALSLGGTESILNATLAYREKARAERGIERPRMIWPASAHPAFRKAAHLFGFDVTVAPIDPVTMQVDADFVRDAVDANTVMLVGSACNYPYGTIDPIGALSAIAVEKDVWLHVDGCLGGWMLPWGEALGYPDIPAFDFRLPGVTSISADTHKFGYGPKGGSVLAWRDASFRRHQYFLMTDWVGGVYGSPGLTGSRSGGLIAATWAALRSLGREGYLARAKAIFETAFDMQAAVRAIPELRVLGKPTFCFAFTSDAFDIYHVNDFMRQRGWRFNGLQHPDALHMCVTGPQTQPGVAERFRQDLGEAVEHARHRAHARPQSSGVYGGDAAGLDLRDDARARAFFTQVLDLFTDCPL

Row | SMILES | X-ray crystal structure, 2.1 Å (S1PL2021 [1]) | UV-vis spectroscopy of PLP (S1PL2021 [2])
1 | Cc1ncc(COP(=O)(O)O)c(C=O)c1O [PLP] | dimer of S1PL with the PLP cofactor present as an internal aldimine with residue K271 | –
2 | CCCCCCCCCCCCC/C=C/[C@@H](O)[C@@H](N)CO [D-erythro sphingosine] | – | S1PL2021 could also bind the nonphosphorylated substrate, D-erythro sphingosine

Source: PMC5234717 (Journal of Lipid Research, 2016)
